In patent US11773129B2, “Methods of preventing or treating atherosclerosis with inhibitors of specific isoenzymes of human neuraminidase” (THE GOVERNORS OF THE UNIVERSITY OF ALBERTA, priority 2017, dated 2023) one finds IC50 and Target data, which are given here for 23 molecules.

Holding throughout (assay type): biochemical
One assay addresses T1, NEU3 (Homo sapiens, UniProt Q9UQ49).
T1 sequence (Q9UQ49 1-428): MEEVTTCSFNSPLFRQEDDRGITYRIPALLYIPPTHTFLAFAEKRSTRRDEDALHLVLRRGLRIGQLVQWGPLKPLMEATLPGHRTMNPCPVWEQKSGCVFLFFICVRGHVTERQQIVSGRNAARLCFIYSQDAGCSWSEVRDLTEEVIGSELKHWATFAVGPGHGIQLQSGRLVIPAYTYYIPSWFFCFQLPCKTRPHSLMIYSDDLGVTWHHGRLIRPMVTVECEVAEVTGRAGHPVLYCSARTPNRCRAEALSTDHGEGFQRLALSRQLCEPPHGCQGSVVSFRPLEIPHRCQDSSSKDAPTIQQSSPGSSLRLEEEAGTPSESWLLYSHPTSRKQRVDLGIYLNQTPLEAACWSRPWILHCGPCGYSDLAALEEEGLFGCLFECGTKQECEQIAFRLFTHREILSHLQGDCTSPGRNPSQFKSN
The assay is described as follows: IC50 inhibition assay using 4MU-NANA as the substrate, NEU3. Also noted: MBP (N); made in house; host or cells: E. coli. The conditions noted are these: 4MU-NANA as the substrate; read-out: IC50 NEU3.

For another assay, the target named is T2, NEU1 (Homo sapiens, UniProt Q99519).
T2 construct: made in house; host or cells: HEK293 (lentiviral transduction), crude lysate
Kind of assay: IC50 inhibition assay using 4MU-NANA as the substrate, NEU1. As to the method: Two weeks after transduction cells were harvested and a crude lysate showing ˜200 nmol/h mg of sialidase activity used in experiments.
Assays were performed with duplicates for each point and IC50 was obtained by plotting the data with Graphpad™ Prism 5.0.

A further assay has as its target T3, NEU4 (Homo sapiens, UniProt Q8WWR8).
T3 sequence (Q8WWR8 1-484): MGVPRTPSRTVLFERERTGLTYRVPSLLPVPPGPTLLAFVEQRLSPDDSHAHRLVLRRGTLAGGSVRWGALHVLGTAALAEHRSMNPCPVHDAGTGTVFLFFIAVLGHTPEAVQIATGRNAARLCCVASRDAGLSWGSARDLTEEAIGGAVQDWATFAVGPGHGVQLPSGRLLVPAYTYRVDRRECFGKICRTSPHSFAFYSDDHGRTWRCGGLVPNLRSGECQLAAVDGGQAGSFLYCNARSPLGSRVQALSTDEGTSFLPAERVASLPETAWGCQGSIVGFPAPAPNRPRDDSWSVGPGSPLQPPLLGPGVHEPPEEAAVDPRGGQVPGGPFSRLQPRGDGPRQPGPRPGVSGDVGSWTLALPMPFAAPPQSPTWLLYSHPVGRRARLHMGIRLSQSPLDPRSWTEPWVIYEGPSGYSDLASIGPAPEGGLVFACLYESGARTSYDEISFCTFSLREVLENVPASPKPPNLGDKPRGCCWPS
The assay is described as follows: IC50 inhibition assay using 4MU-NANA as the substrate, NEU4. On the set-up: GST; made in house; host or cells: E. coli. The conditions noted are these: 4MU-NANA as the substrate; read-out: IC50 NEU4.

Another assay relates to NEU1, NEU2, NEU3, NEU4. The assay is described as follows: Isoenzyme specificity/selectivity from 4MU-NANA IC50 across the four human neuraminidases.
Setting [1] is: 4MU-NANA as the substrate, read-out: IC50 NEU1.
Setting [2] is: isoenzyme(s) the compound is specific for, dual (bispecific) when ratio of IC50 is about 3 or less.

Each structure is given as a SMILES string. Read-outs that look alike come from different tables or passages of the source.

For the molecule `CCCCC(CC)C(=O)N[C@H]1[C@H]([C@H](O)[C@H](O)CO)OC(C(=O)O)=C[C@@H]1O` (mixture of isomers) [compound 75, 5-(2-Ethyl)hexanamido(SIR)-2,6-anhydro-3,5-dideoxy-d-glycero-d-galacto-non-2-enonic acid], the IC50 (commonly the concentration that gives 50% inhibition) was less than 1 µM on NEU3 and 0.58 ± 0.03 µM at NEU1 (setting [1]).

`CCCCC(C)C(=O)N[C@H]1[C@H]([C@H](O)[C@H](O)CO)OC(C(=O)O)=C[C@@H]1O` (mixture of isomers) [compound 72, 5-(2-Methyl)hexanamido(S/R)-2,6-anhydro-3,5-dideoxy-d-glycero-d-galacto-non-2-enonic acid]: the IC50 is less than 1 µM at NEU3 and 0.55 ± 0.07 µM on NEU1 (setting [1]).

As to `CCCCC(CC)C(=O)N[C@H]1[C@H]([C@H](O)[C@H](O)CNC(C)=O)OC(C(=O)O)=C[C@@H]1O` (mixture of isomers) [compound 73, 5-(2-Ethyl)hexanamido(S/R)-9-acetanamido-2,6-anhydro-3,5-dideoxy-d-glycero-d-galacto-non-2-enonic acid], the IC50 at NEU1 (setting [1]) came out at 1.8 ± 0.2 µM.

As for `CCCCC(C)C(=O)N[C@H]1[C@H]([C@H](O)[C@H](O)CNC(C)=O)OC(C(=O)O)=C[C@@H]1O` (mixture of isomers) [compound 74, 5-(2-Methyl)hexanamido(S/R)-9-acetanamido-2,6-anhydro-3,5-dideoxy-d-glycero-d-galacto-non-2-enonic acid], the concentration for half-maximal inhibition (IC50) at NEU3 was less than 1 µM; at NEU1 (setting [1]) it was 0.42 ± 0.07 µM.

On to `CC(=O)N[C@H]1[C@H]([C@H](O)[C@H](O)Cn2cc(-c3ccc(N(C)C)cc3)nn2)OC(C(=O)O)=C[C@@H]1O` [7a], for which the IC50 on NEU4 worked out at 28 ± 3 µM; on NEU3, 9.3 ± 0.8 µM; at NEU1 (setting [1]), 190 ± 40 µM. Also, the Target result with NEU1, NEU2, NEU3, NEU4 (setting [2]) is “NEU3/ NEU4”.

`CC(=O)Nc1ccc(-c2cn(C[C@@H](O)[C@@H](O)[C@@H]3OC(C(=O)O)=C[C@H](O)[C@H]3NC(C)=O)nn2)cc1` [7b]: the 50% inhibitory concentration (IC50) at NEU4 is 11 ± 1 µM; on NEU3, 5.5 ± 0.5 µM; at NEU1 (setting [1]), 59 ± 5 µM. For the same molecule, the Target entry with NEU1, NEU2, NEU3, NEU4 (setting [2]) is “NEU3/ NEU4”.

For the molecule `CCC(=O)N[C@H]1C=C(C(=O)O)O[C@@H]([C@H](O)[C@H](O)CO)[C@@H]1NC(C)=O` [25a, 5-Acetamido-2,6-anhydro-4-propionamido-3,4,5-trideoxy-D-glycero-D-galacto-non-2-enonic acid], the IC50 at NEU4, at NEU3 and at NEU1 (setting [1]) was more than 500 µM throughout.

On to `CCCCC(=O)N[C@H]1C=C(C(=O)O)O[C@@H]([C@H](O)[C@H](O)CO)[C@@H]1NC(C)=O` [25b, 5-Acetamido-2,6-anhydro-4-pentanamido-3,4,5-trideoxy-D-glycero-D-galacto-non-2-enonic acid], for which the half-inhibitory concentration (IC50) at NEU4, on NEU3 and on NEU1 (setting [1]) was more than 500 µM throughout.

Regarding `CC(=O)N[C@H]1[C@H]([C@H](O)[C@H](O)CO)OC(C(=O)O)=C[C@@H]1NC(=O)C1CC1` [25c, 5-Acetamido-2,6-anhydro-4-cyclopropanecarboxamido-3,4,5-trideoxy-b-glycero-D-galacto-non-2-enonic acid], the IC50 at NEU4, on NEU3 and on NEU1 (setting [1]) was more than 500 µM in each case.

Turning to `CC(=O)N[C@H]1[C@H]([C@H](O)[C@H](O)CO)OC(C(=O)O)=C[C@@H]1NC(=O)C1CCC1` [25d, 5-Acetamido-2,6-anhydro-4-cyclobutanecarboxamido-3,4,5-trideoxy-D-glycero-D-galacto-non-2-enonic acid], the half-inhibitory concentration (IC50) on NEU4, at NEU3 and on NEU1 (setting [1]) was more than 500 µM each time.

As for `CCCCCC(=O)N[C@H]1[C@H]([C@H](O)[C@H](O)CO)OC(C(=O)O)=C[C@@H]1O` [compound 32, 5-Hexanamido-2,6-anhydro-3,5-dideoxy-D-glycero-D-galacto-non-2-enonic acid], the concentration for half-maximal inhibition (IC50) on NEU4 is 440 ± 150 µM; on NEU1 (setting [1]), 0.42 ± 0.06 µM; at NEU1 (target isoenzyme NEU1, 4MU-NANA substrate, read-out: IC50 [μM] NEU1), 0.4 µM. Moreover, the Target result in the assay on NEU1, NEU2, NEU3, NEU4 (setting [2]) is reported as “NEU1”.

For `[N-]=[N+]=NCC(=O)N[C@@H]1C(O)C=C(C(=O)O)OC1C(O)C(O)CO` (stereo partly drawn) [compound 40, 5-(N-2-azidoacetyl)-2,3,5-trideoxy-D-glycero-D-galacto-2-nonulopyranosonic acid], the values for the 50% inhibitory concentration (IC50) at NEU4, at NEU3 and at NEU1 (setting [1]) were 5.6 ± 0.8 µM, 4.4 ± 0.9 µM and 24 ± 2 µM, respectively.

For the molecule `Cc1ccc(-c2cn(CC(=O)N[C@@H]3C(O)C=C(C(=O)O)OC3C(O)C(O)CO)nn2)cc1` (some centres unmarked) [compound 42], the figures for the 50% inhibitory concentration (IC50) at NEU4, on NEU3 and at NEU1 (setting [1]) were 110 ± 20 µM, more than 500 µM and more than 500 µM, respectively.

`Nc1ccc(-c2cn(CC(=O)N[C@@H]3C(O)C=C(C(=O)O)OC3C(O)C(O)CO)nn2)cc1` (some centres unmarked) [compound 46]: the IC50 is 130 ± 20 µM on NEU4, 430 ± 100 µM on NEU3 and more than 500 µM at NEU1 (setting [1]).

On to `CCCC(=O)NCC(O)C(O)C1OC(C(=O)O)=CC(O)[C@H]1NC(C)=O` (stereo partly drawn) [compound 49, 5-Acetamido-9-butyramido-2,6-anhydro-3,5-dideoxy-D-glycero-D-galacto-non-2-enonic acid], for which the IC50 at NEU3 amounted to 250 ± 90 µM; at NEU1 (setting [1]) it was 4 ± 0.5 µM.

Turning to `CCCCCC(=O)NCC(O)C(O)C1OC(C(=O)O)=CC(O)[C@H]1NC(C)=O` (stereo partly drawn) [compound 51, 5-Acetamido-9-hexanamido-2,6-anhydro-3,5-dideoxy-D-glycero-D-galacto-non-2-enonic acid], the IC50 was 290 ± 30 µM on NEU4 and 83 ± 9 µM at NEU3. In the assay on NEU1, NEU2, NEU3, NEU4, the Target result is “NEU1”.

For the molecule `CC(=O)N[C@@H]1C(O)C=C(C(=O)O)OC1C(O)C(O)CNC(=O)C(C)C` (stereo partly drawn) [compound 53, 5-Acetamido-9-isobutyramido-2,6-anhydro-3,5-dideoxy-D-glycero-D-galacto-non-2-enonic acid], the values for the IC50 on NEU4 and at NEU3 were 230 ± 60 µM and 96 ± 28 µM, respectively.

`CC(=O)N[C@@H]1C(O)C=C(C(=O)O)OC1C(O)C(O)CNC(=O)CC(C)C` (stereo partly drawn) [compound 54, 5-Acetamido-9-(3-methylbutanamido)-2,6-anhydro-3,5-dideoxy-D-glycero-D-galacto-non-2-enonic acid]: the IC50 was determined as 130 ± 40 µM on NEU4, 72 ± 20 µM on NEU3 and 2.5 ± 0.3 µM at NEU1 (setting [1]).

Regarding `CCCCCc1cn(C[C@@H](O)[C@@H](O)[C@@H]2OC(C(=O)O)=C[C@H](O)[C@H]2NC(C)=O)nn1` [compound 63, 5-Acetamido-9-(4-pentyl)triazolyl-2,6-anhydro-3,5-dideoxy-d-glycero-d-galacto-non-2-enonic acid], the IC50 at NEU4 is 2.6 ± 0.6 µM; on NEU3, 6.7 ± 1.2 µM. In the assay with NEU1, NEU2, NEU3, NEU4 (setting [2]), the Target result is “NEU3/ NEU4”.

For `CCCCC(=O)N[C@H]1[C@H]([C@H](O)[C@H](O)CNC(C)=O)OC(C(=O)O)=C[C@@H]1O` [compound 67, 5-Pentanamido-9-acetamido-2,6-anhydro-3,5-dideoxy-D-glycero-D-galacto-non-2-enonic acid], the IC50 on NEU4 was more than 500 µM; at NEU1 (setting [1]), 0.35 ± 0.03 µM. Moreover, in the assay on NEU1, NEU2, NEU3, NEU4 (setting [2]), the Target result was “NEU1”.

On to `CCCCCC(=O)N[C@H]1[C@H]([C@H](O)[C@H](O)CNC(C)=O)OC(C(=O)O)=C[C@@H]1O` [compound 68, 5-Hexanamido-9-acetamido-2,6-anhydro-3,5-dideoxy-D-glycero-D-galacto-non-2-enonic acid], for which the IC50 on NEU4 amounted to 170 ± 100 µM; on NEU1 (setting [1]), 0.14 ± 0.01 µM. Also, the Target result in the assay on NEU1, NEU2, NEU3, NEU4 (setting [2]) is “NEU1”.

`CCCCCC(=O)N[C@H]1[C@H]([C@H](O)[C@H](O)CNC(=O)CC)OC(C(=O)O)=C[C@@H]1O` [compound 69, 5-Hexanamido-9-propionamido-2,6-anhydro-3,5-dideoxy-d-glycero-d-galacto-non-2-enonic acid]: the IC50 on NEU4 is 270 ± 70 µM; at NEU1 (setting [1]), 0.4 ± 0.1 µM. Also, in the assay on NEU1, NEU2, NEU3, NEU4 (setting [2]), the Target entry is on record as “NEU1”.

For the molecule `CC(C)CCC(=O)N[C@H]1[C@H]([C@H](O)[C@H](O)CO)OC(C(=O)O)=C[C@@H]1NC(=N)N` [compound 71, 5-(4-methylpentanamido)-2,6-anhydro-4-guanidino-3,4,5-trideoxy-D-glycero-D-galacto-non-2-enonic acid], the IC50 at NEU4 came out at 47 ± 7 µM; on NEU3, 150 ± 20 µM; on NEU1 (setting [1]), 14 ± 2 µM.
